How the values were obtained:
[1] = biological target: Tyrosine-protein kinase JAK2 (Homo sapiens, UniProt O60674); assay type: ADME
Description: Inhibition of recombinant human JAK2 (808-end residues) in presence of ATP

[2] = biological target: Tyrosine-protein kinase JAK1 (Homo sapiens, UniProt P23458)
Description: Inhibition of recombinant human JAK1 (866-end residues) in presence of ATP

[3] = in vitro; details: mouse, microsomes
Description: Metabolic stability in mouse liver microsomes assessed as parent compound remaining after 30 mins

[4] = in vitro; details: rat, microsomes
Description: Metabolic stability in rat liver microsomes assessed as parent compound remaining after 30 mins

[5] = in vitro; details: human, microsomes
Description: Metabolic stability in human liver microsomes assessed as parent compound remaining after 30 mins

[6] = in vitro; details: dog, microsomes
Description: Metabolic stability in dog liver microsomes assessed as parent compound remaining after 30 mins

Sequence of Tyrosine-protein kinase JAK1 (P23458 whole entry): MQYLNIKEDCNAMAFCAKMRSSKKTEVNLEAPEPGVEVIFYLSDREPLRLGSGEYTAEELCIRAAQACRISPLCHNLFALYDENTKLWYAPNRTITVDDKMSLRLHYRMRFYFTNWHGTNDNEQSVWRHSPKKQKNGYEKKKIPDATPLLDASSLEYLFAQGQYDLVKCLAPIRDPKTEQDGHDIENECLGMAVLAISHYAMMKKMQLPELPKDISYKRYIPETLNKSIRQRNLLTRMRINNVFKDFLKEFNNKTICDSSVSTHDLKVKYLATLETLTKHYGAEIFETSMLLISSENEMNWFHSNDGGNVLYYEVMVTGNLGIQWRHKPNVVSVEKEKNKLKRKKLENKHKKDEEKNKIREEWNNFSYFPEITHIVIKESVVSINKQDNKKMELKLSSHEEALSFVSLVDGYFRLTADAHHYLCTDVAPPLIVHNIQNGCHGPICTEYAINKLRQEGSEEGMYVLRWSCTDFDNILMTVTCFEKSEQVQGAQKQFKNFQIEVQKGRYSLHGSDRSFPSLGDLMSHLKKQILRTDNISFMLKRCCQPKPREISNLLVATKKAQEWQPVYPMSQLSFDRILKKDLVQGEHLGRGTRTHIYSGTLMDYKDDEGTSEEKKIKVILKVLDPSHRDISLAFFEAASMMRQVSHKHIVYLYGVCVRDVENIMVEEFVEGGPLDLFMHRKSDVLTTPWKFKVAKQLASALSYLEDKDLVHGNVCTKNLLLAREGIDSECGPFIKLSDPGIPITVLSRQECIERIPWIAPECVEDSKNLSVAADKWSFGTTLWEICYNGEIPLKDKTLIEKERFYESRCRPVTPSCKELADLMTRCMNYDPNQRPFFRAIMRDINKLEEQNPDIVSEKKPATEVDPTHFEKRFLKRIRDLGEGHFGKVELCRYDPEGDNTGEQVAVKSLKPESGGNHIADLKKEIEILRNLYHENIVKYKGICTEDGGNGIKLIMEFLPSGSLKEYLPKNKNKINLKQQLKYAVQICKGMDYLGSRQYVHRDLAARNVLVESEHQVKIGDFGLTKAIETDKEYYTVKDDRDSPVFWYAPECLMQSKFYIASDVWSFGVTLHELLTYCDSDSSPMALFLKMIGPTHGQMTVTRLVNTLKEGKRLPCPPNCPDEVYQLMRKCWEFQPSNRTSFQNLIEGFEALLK
Sequence of Tyrosine-protein kinase JAK2 (O60674 whole entry): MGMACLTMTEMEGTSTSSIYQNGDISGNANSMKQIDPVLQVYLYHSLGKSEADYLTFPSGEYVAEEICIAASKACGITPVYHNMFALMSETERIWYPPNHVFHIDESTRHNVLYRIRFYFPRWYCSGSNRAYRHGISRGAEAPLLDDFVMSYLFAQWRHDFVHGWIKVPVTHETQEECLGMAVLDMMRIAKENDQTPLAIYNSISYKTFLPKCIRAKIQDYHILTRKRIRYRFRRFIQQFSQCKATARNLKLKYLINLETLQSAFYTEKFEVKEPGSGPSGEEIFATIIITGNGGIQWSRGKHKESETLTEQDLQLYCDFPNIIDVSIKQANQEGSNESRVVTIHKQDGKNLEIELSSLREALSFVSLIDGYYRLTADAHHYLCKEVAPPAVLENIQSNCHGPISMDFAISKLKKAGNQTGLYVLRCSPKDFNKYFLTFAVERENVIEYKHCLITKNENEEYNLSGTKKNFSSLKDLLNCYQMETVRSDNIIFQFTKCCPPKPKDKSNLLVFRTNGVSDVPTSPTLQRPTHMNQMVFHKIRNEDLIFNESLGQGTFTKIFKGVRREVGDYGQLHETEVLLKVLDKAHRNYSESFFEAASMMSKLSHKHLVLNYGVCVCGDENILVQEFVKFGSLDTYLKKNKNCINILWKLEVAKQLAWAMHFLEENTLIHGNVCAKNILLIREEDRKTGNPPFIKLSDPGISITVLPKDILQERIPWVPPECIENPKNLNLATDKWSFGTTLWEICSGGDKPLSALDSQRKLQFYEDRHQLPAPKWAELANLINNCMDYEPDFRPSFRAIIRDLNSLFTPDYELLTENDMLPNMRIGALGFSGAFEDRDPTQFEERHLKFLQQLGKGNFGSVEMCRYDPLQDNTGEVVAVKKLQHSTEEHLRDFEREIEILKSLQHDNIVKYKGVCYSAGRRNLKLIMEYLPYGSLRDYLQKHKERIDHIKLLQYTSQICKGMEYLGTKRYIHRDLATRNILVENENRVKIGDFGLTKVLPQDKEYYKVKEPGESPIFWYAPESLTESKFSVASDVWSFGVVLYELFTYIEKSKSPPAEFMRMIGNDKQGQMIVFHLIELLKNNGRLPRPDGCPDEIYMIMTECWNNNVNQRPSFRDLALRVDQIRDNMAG

Row | SMILES | IC50 [1] [µM] | IC50 [2] [µM] | remaining at 0.5 h [3] [%] | remaining at 0.5 h [4] [%] | remaining at 0.5 h [5] [%] | remaining at 0.5 h [6] [%]
1 | CC(C)COC(=O)N1CC[C@@H](N(C)c2ncnc3[nH]ccc23)C1 | 4.3 | 0.11 |  |  |  | 
2 | CN(c1ncnc2[nH]ccc12)[C@@H]1CCN(S(=O)(=O)N2CCCCC2)C1 | 3.9 | 0.066 |  |  |  | 
3 | CN(c1ncnc2[nH]ccc12)[C@H]1CN(C(=O)CC#N)CC12CCC2 | 0.45 | 0.016 |  |  |  | 
4 | CN(c1ncnc2[nH]ccc12)[C@@H]1CCN(S(=O)(=O)C(F)(F)F)C1 | 4.5 | 0.14 |  |  |  | 
5 | CN(c1ncnc2[nH]ccc12)[C@@H]1CCN(C(=O)Nc2ccccc2)C1 | 0.55 | 0.022 |  |  |  | 
6 | N#Cc1cccc(S(=O)(=O)N2CC[C@@H](N(CC3CC3)c3ncnc4[nH]ccc34)C2)c1 | 1.4 | 0.017 |  |  |  | 
7 | CN(c1ncnc2[nH]ccc12)[C@@H]1CCN(S(=O)(=O)c2ccc3ccccc3c2)C1 | 0.69 | 0.013 |  |  |  | 
8 | CN(c1ncnc2[nH]ccc12)[C@@H]1CCN(S(=O)(=O)c2ccc([N+](=O)[O-])cc2)C1 | 0.089 | 0.0036 |  |  |  | 
9 | CN(c1ncnc2[nH]ccc12)[C@@H]1CCN(S(=O)(=O)c2ccc(C(F)(F)F)cc2)C1 | 3.4 | 0.0095 | 8.4 | 11.4 | 21 | 14.2
10 | CN(c1ncnc2[nH]ccc12)[C@@H]1CCN(S(=O)(=O)c2ccccc2F)C1 | 0.13 | 0.025 |  |  |  | 
11 | CCN(c1ncnc2[nH]ccc12)[C@@H]1CCN(C(=O)CC#N)C1 | 1.3 | 0.062 |  |  |  | 
12 | CC(C)CC(=O)N1CC[C@@H](N(C)c2ncnc3[nH]ccc23)C1 | 3.9 | 0.07 |  |  |  | 
13 | CN(c1ncnc2[nH]ccc12)[C@@H]1CCN(S(=O)(=O)c2cccc(F)c2)C1 | 0.053 | 0.014 |  |  |  | 
14 | CCS(=O)(=O)N1CC[C@@H](N(C)c2ncnc3[nH]ccc23)C1 | 2.4 | 0.079 |  |  |  | 
15 | CN(c1ncnc2[nH]ccc12)[C@@H]1CCN(C(=O)CN=[N+]=[N-])C1 | 0.17 | 0.01 |  |  |  | 
16 | CN(c1ncnc2[nH]ccc12)[C@@H]1CCN(S(=O)(=O)c2ccc(C#N)cc2)C1 | 1.2 | 0.011 |  |  |  | 
17 | CN(c1ncnc2[nH]ccc12)[C@@H]1CCN(S(=O)(=O)c2ccccc2C#N)C1 | 0.37 | 0.052 |  |  |  | 
18 | CN(c1ncnc2[nH]ccc12)[C@@H]1CCN(S(=O)(=O)c2ccc(F)cc2)C1 | 0.11 | 0.011 |  |  |  | 
19 | CN(c1ncnc2[nH]ccc12)[C@H]1CN(C(=O)CC#N)CC1(C)C | 5.9 | 0.26 |  |  |  | 
